Assay results as given in patent publication US12655116B2, “Substituted isophthalic acid diamides” (Bayer Aktiengesellschaft, priority 2020, dated 2026).

Experiments:
AVEFA = experiment: Pre-emergence herbicidal action against AVEFA; format: in vivo, Avena fatua; conditions: 80 g/ha, pre-emergence
Summary of the method: (§1)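 Pre-emergence soil-surface spray of formulated compound (WP or EC; 600 to 800 l/ha; 0.2% wetting agent) over seeds sown in sandy loam. After 3 weeks under greenhouse conditions, damage is estimated visually in percent against untreated plants.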

HORMU = experiment: Pre-emergence herbicidal action against HORMU; format: in vivo, Hordeum murinum; conditions: 80 g/ha, pre-emergence
Description: Seeds of monocotyledonous and dicotyledonous weed plants and crop plants are laid out in sandy loam soil in wood-fiber pots and covered with soil. The compounds of the invention, formulated in the form of wettable powders (WP) or as emulsion concentrates (EC), are then applied to the surface of the covering soil in the form of an aqueous suspension or emulsion at a water application rate equivalent to 600 to 800 l/ha, with addition of 0.2% wetting agent. After the treatment, the pots are placed in a greenhouse and kept under good growth conditions for the trial plants. The damage to the test plants is scored visually after a test period of 3 weeks by comparison with untreated controls (herbicidal activity in percent (%): 100% activity=the plants have died, 0% activity=like control plants). […] The tables below illustrate, in an illustrative manner, the post-emergence herbicidal action of the compounds of the invention, the herbicidal activity being stated in percent.

ECHCG [1] = experiment: Post-emergence herbicidal action against ECHCG; format: in vivo, Echinochloa crus-galli
Summary of the method: (§2)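 Greenhouse plants in sandy loam were sprayed at the one-leaf stage, 2 to 3 weeks after sowing, with WP or EC formulations as aqueous suspension or emulsion (600 to 800 l/ha water, 0.2% wetting agent). Visual damage was scored about 3 weeks later versus untreated controls, 0% = like control, 100% = dead.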

ALOMY [2] = experiment: Post-emergence herbicidal action against ALOMY; format: in vivo, Alopecurus myosuroides; conditions: dosage 20 g/ha, visual assessment about 3 weeks after treatment vs untreated controls
Summary of the method: as §2

VERPE = experiment: Pre-emergence herbicidal action against VERPE; format: in vivo, Veronica persica; conditions: dosage 80 g/ha
Summary of the method: as §1

AMARE [3] = experiment: Pre-emergence herbicidal action against AMARE; format: in vivo, Amaranthus retroflexus
Summary of the method: as §1

DIGSA [4] = experiment: Post-emergence herbicidal action against DIGSA; format: in vivo, Digitaria sanguinalis
Summary of the method: as §2

STEME [5] = experiment: Post-emergence herbicidal action against STEME; format: in vivo, Stellaria media
Summary of the method: as §2

LOLRI = experiment: Pre-emergence herbicidal action against LOLRI; format: in vivo, Lolium rigidum; conditions: 80 g/ha
Summary of the method: as §1

AMARE [6] = experiment: Post-emergence herbicidal action against AMARE; format: in vivo, Amaranthus retroflexus; conditions: 20 g/ha, visual assessment about 3 weeks after treatment, 100% = plants have died, 0% = like control plants
Summary of the method: as §2

SETVI [7] = experiment: Pre-emergence herbicidal action against SETVI; format: in vivo, Setaria viridis
Summary of the method: as §1

ABUTH [8] = experiment: Post-emergence herbicidal action against ABUTH; format: in vivo, Abutilon theophrasti; conditions: visual assessment about 3 weeks after treatment vs untreated controls
Summary of the method: as §2

SETVI [9] = experiment: Post-emergence herbicidal action against SETVI; format: in vivo, Setaria viridis
Summary of the method: as §2

PHBPU = experiment: Pre-emergence herbicidal action against PHBPU; format: in vivo, Pharbitis purpurea; conditions: dosage 80 g/ha
Summary of the method: as §1

MATIN [10] = experiment: Pre-emergence herbicidal action against MATIN; format: in vivo, Matricaria inodora
Summary of the method: as §1

ECHCG [11] = experiment: Pre-emergence herbicidal action against ECHCG; format: in vivo, Echinochloa crus-galli; conditions: 80 g/ha
Summary of the method: as §1

ABUTH [12] = experiment: Pre-emergence herbicidal action against ABUTH; format: in vivo, Abutilon theophrasti
Summary of the method: as §1

DIGSA [13] = experiment: Pre-emergence herbicidal action against DIGSA; format: in vivo, Digitaria sanguinalis
Summary of the method: as §1

MATIN [14] = experiment: Post-emergence herbicidal action against MATIN; format: in vivo, Matricaria inodora
Summary of the method: as §2

VIOTR = experiment: Pre-emergence herbicidal action against VIOTR; format: in vivo, Viola tricolor
Summary of the method: as §1

ALOMY [15] = experiment: Pre-emergence herbicidal action against ALOMY; format: in vivo, Alopecurus myosuroides; conditions: 80 g/ha, pre-emergence, scored visually after 3 weeks vs untreated controls (100% = plants have died, 0% = like control plants)
Summary of the method: as §1

STEME [16] = experiment: Pre-emergence herbicidal action against STEME; format: in vivo, Stellaria media
Summary of the method: as §1

[17] = 80 g/ha, scored visually after 3 weeks vs untreated controls (100% = plants have died, 0% = like control plants)

## CCc1c(C(=O)Nc2nnnn2CC)ccc(C(F)(F)F)c1C(=O)NC1CC1 [Example 2-273]
AVEFA
  Pre-emergence action against AVEFA in %: 90%
HORMU
  Pre-emergence action against HORMU in %: 80%
ECHCG [1]; dosage 5 g/ha
  Post-emergence action against ECHCG in %: 80%
ECHCG [1]; dosage 20 g/ha
  Post-emergence action against ECHCG in %: 90%
ALOMY [2]
  Post-emergence action against ALOMY in %: 80%
VERPE
  Pre-emergence action against VERPE in %: 100%
AMARE [3]; 20 g/ha, scored visually after 3 weeks vs untreated controls, 100% = plants have died, 0% = like control plants
  Pre-emergence action against AMARE in %: 90%
AMARE [3]; [17]
  Pre-emergence action against AMARE in %: 100%
DIGSA [4]; 5 g/ha
  Post-emergence action against DIGSA in %: 80%
DIGSA [4]; 20 g/ha
  Post-emergence action against DIGSA: 90%
STEME [5]; 20 g/ha
  Post-emergence action against STEME in %: 90%
STEME [5]; dosage 5 g/ha
  Post-emergence action against STEME in %: 80%
LOLRI
  Pre-emergence action against LOLRI in %: 80%
AMARE [6]
  Post-emergence action at 20 g/ha against AMARE in %: 90%
SETVI [7]; dosage 20 g/ha
  Pre-emergence action against SETVI in %: 80%
SETVI [7]; dosage 80 g/ha
  Pre-emergence action against SETVI in %: 90%
ABUTH [8]; dosage 5 g/ha
  Post-emergence action against ABUTH in %: 90%
ABUTH [8]; dosage 20 g/ha
  Post-emergence action against ABUTH in %: 90%
SETVI [9]; dosage 5 g/ha
  Post-emergence action against SETVI in %: 80%
SETVI [9]; dosage 20 g/ha
  Post-emergence action against SETVI in %: 90%
PHBPU
  Pre-emergence action against PHBPU in %: 90%
MATIN [10]; dosage 20 g/ha
  Pre-emergence action against MATIN in %: 100%
MATIN [10]; dosage 80 g/ha
  Pre-emergence action against MATIN in %: 100%
ECHCG [11]
  Pre-emergence action against ECHCG in %: 90%
ABUTH [12]; [17]
  Pre-emergence action against ABUTH (herbicidal activity): 90%
ABUTH [12]; dosage 20 g/ha, scored visually after 3 weeks vs untreated controls, 100% = plants have died, 0% = like control plants
  Pre-emergence action against ABUTH (herbicidal activity in percent): 90%
DIGSA [13]; dosage 20 g/ha
  Pre-emergence action against DIGSA in %: 100%
DIGSA [13]; dosage 80 g/ha
  Pre-emergence action against DIGSA in %: 100%
MATIN [14]; dosage 5 g/ha
  Post-emergence action against MATIN in %: 80%
MATIN [14]; dosage 20 g/ha
  Post-emergence action against MATIN in %: 90%
VIOTR; dosage 20 g/ha
  Pre-emergence action against VIOTR in %: 90%
VIOTR; dosage 80 g/ha
  Pre-emergence action against VIOTR in %: 100%
ALOMY [15]
  Pre-emergence action against ALOMY (herbicidal activity): 90%
STEME [16]; dosage 20 g/ha
  Pre-emergence action against STEME in %: 90%
STEME [16]; dosage 80 g/ha
  Pre-emergence action against STEME in %: 90%
